Measurements reported in the supplement of paper PMC10307832.

Key:
Experiment in all cases: relative viability (nuclei count vs DMSO), 5 days (fraction); higher = more cells survive
Doxorubicin + Foretinib = compound: COc1cccc2c1C(=O)c1c(O)c3c(c(O)c1C2=O)C[C@@](O)(C(=O)CO)C[C@@H]3O[C@H]1C[C@H](N)[C@H](O)[C@H](C)O1 [Doxorubicin] + COc1cc2c(Oc3ccc(NC(=O)C4(C(=O)Nc5ccc(F)cc5)CC4)cc3F)ccnc2cc1OCCCN1CCOCC1 [Foretinib] (partner 0.25 µM)
How it was run: (§1)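 For relative viability, nuclei counts in treated wells were divided by those in vehicle wells. Lung cancer cell lines had been pin-tool dosed in 1536-well plates the day after seeding and cultured for 5 days, then fixed and stained in one step (final 0.05% Triton X-100, 1% formaldehyde, 1 ug/ml Hoechst) and imaged at 4×. Doses were one drug alone or a fixed anchor-drug dose plus five library-drug doses (not always all listed) in √10 steps, and values are duplicate-plate medians.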

Doxorubicin + Linsitinib = compound: COc1cccc2c1C(=O)c1c(O)c3c(c(O)c1C2=O)C[C@@](O)(C(=O)CO)C[C@@H]3O[C@H]1C[C@H](N)[C@H](O)[C@H](C)O1 [Doxorubicin] + C[C@]1(O)C[C@@H](c2nc(-c3ccc4ccc(-c5ccccc5)nc4c3)c3c(N)nccn32)C1 [Linsitinib] (partner 1 µM)
How it was run: as §1

BAY61-3606 + Tozasertib = compound: COC1=C(C=C(C=C1)C2=CC3=NC=CN3C(=N2)NC4=C(C=CC=N4)C(=O)N)OC [BAY61-3606] + Cc1cc(Nc2cc(N3CCN(C)CC3)nc(Sc3ccc(NC(=O)C4CC4)cc3)n2)n[nH]1 [Tozasertib] (partner 0.1 µM)
How it was run: as §1

Doxorubicin + Bortezomib = compound: COc1cccc2c1C(=O)c1c(O)c3c(c(O)c1C2=O)C[C@@](O)(C(=O)CO)C[C@@H]3O[C@H]1C[C@H](N)[C@H](O)[C@H](C)O1 [Doxorubicin] + CC(C)C[C@H](NC(=O)[C@H](Cc1ccccc1)NC(=O)c1cnccn1)B(O)O [Bortezomib] (partner 0.002 µM)
How it was run: as §1

Cell Line	relative viability (Doxorubicin + Foretinib; first compound 0.003162 µM)	relative viability (Doxorubicin + Foretinib; first compound 0.01 µM)	relative viability (Doxorubicin + Foretinib; first compound 0.03162 µM)	relative viability (Doxorubicin + Foretinib; first compound 0.1 µM)	relative viability (Doxorubicin + Linsitinib; first compound 0.001 µM)	relative viability (Doxorubicin + Linsitinib; first compound 0.003162 µM)	relative viability (Doxorubicin + Linsitinib; first compound 0.01 µM)	relative viability (Doxorubicin + Linsitinib; first compound 0.03162 µM)	relative viability (Doxorubicin + Linsitinib; first compound 0.1 µM)	relative viability (BAY61-3606 + Tozasertib; first compound 0.02 µM)	relative viability (BAY61-3606 + Tozasertib; first compound 0.06325 µM)	relative viability (BAY61-3606 + Tozasertib; first compound 0.2 µM)	relative viability (BAY61-3606 + Tozasertib; first compound 0.6325 µM)	relative viability (BAY61-3606 + Tozasertib; first compound 2 µM)	relative viability (Doxorubicin + Bortezomib; first compound 0.003162 µM)	relative viability (Doxorubicin + Bortezomib; first compound 0.01 µM)	relative viability (Doxorubicin + Bortezomib; first compound 0.03162 µM)	relative viability (Doxorubicin + Bortezomib; first compound 0.1 µM)	relative viability (Doxorubicin + Foretinib; first compound 0.001 µM)	relative viability (Doxorubicin + Bortezomib; first compound 0.001 µM)
NCI-H441	1.04	0.897	0.48	0.368	0.697	0.718	0.513	0.281	0.513	0.636	0.558	0.363	0.314	0.274	0.452	0.392	0.295	0.315	–	–
H3255	0.821	0.973	0.818	0.863	0.906	1.07	0.908	0.9	0.938	0.6	0.64	0.54	0.649	0.701	0.889	0.856	0.589	0.306	0.791	0.675
NCI-H1915	1.11	1.02	1.06	1.1	1.14	1.03	1.08	1.05	1.1	0.416	0.329	0.365	0.277	0.152	0.943	0.927	0.94	1	1.1	0.994
NCI-H1651	0.929	0.737	0.48	0.222	0.838	0.944	0.831	0.401	0.292	0.726	0.488	0.503	0.55	0.356	0.958	0.869	0.842	0.902	0.842	0.987
NCI-H2126	1.12	0.884	1.12	1.28	0.704	0.748	0.739	0.712	0.718	0.895	0.485	0.801	0.945	0.331	1.12	1.1	1.1	1.13	1.29	1.08
RERF-LC-KJ	0.944	0.81	0.761	0.867	0.816	0.858	0.873	0.943	0.887	0.532	0.435	0.399	0.368	0.279	1.2	1.03	0.809	0.967	0.9	1.03
LXF-289	0.975	0.97	1.09	0.98	0.997	0.968	0.946	1.04	0.993	0.227	0.183	0.194	0.16	0.165	1.02	0.998	0.996	0.926	0.958	1.01
NCI-H838	1.07	1.06	0.85	0.438	1.04	1.04	0.952	0.906	0.446	0.285	0.224	0.234	0.23	0.224	1.03	0.967	0.384	0.17	1.1	0.89
